Measured values taken from patent publication US10174016B2 (BAYER AKTIENGESELLSCHAFT, priority 2014, dated 2019).
pIC50: −log10 of the molar value. Read-outs that look alike come from different tables or passages of the source.

Tests used:
human P2X2/3 receptor = human P2X2/3 receptor (Homo sapiens (Human), UniProt P56373+Q9UBL9); assay: Intracellular calcium measurement (FLIPR, Fluo-4) of antagonist activity at human P2X2/3 receptors; assay type: cell-based; conditions: human P2X2/3, FLIPR calcium assay, agonist α,β-Me-ATP; read-out: hP2X2/3 IC50
Procedure: (§1) Intracellular Calcium Measurement to Assess Antagonist Activity at Human P2X3 and Human P2X2/3 Receptors
(§2) A fluorescent imaging plate reader (FLEX/FLIPR station; Molecular Devices) was used to monitor intracellular calcium levels using the calcium-chelating dye Fluo-4 (Molecular Probes). […] Cells expressing purinergic receptors P2X3 (human) or P2X2/3 (human) were plated at a density of 15,000 cells/well in collagen-coated 384-well plates approximately 20 hours before beginning the assay. […] The test compound was added in a volume of 5 μl and allowed to incubate for 30 min at 37° C. The final assay DMSO concentration is 1%. The agonist, α,β-Me-ATP, was added in a volume of 20 μl at a concentration representing the EC80 value. The fluorescence was measured for an interval of 90 sec at 2 sec intervals and analyzed based on the increase in peak relative fluorescence units (RFU) compared to the basal fluorescence. Peak fluorescence was used to determine the response to agonist obtained at each concentration of test compound by the following equation: % Response=100*(RFU(test compound)−RFU(control)/RFU(DMSO)−RFU(control))
(§3) The Examples were tested in triplicates per plate and mean values were plotted in Excel XLFit to determine IC50 values at the human P2X3 and human P2X2/3 receptors, percentage of maximal inhibition and the Hill coefficients.

human P2X3 receptor = human P2X3 receptor (Homo sapiens (Human), UniProt P56373); assay: Intracellular calcium measurement (FLIPR, Fluo-4) of antagonist activity at human P2X3 receptors; assay type: cell-based; conditions: read-out: hP2X3 IC50
Procedure: as §1, §2, §3

[1] = human P2X3, FLIPR calcium assay, agonist α,β-Me-ATP

Sequence of human P2X2/3 receptor (P56373 whole entry): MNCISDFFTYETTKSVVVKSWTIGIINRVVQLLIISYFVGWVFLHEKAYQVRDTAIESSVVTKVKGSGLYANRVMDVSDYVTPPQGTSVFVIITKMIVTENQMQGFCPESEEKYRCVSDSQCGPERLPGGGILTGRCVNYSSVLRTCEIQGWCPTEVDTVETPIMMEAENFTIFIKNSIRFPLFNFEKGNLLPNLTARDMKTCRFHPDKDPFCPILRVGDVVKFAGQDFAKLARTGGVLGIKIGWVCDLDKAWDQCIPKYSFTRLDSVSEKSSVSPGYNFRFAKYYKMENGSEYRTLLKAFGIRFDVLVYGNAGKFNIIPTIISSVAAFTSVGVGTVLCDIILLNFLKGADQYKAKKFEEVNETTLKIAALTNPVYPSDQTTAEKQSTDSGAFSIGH
Sequence of human P2X2/3 receptor (Q9UBL9 whole entry): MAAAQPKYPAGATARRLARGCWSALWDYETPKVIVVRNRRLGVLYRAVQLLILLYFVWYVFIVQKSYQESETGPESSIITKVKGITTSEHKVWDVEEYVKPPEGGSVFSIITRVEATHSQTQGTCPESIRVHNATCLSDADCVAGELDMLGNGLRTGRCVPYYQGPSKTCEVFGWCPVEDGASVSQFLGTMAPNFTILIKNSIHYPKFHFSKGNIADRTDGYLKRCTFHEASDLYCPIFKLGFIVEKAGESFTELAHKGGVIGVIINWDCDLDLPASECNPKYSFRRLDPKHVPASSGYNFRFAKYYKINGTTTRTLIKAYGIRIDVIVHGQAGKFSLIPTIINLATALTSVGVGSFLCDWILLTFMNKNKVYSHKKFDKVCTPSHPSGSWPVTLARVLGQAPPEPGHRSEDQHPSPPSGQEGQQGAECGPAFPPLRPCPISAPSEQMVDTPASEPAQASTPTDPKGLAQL
Sequence of human P2X3 receptor (P56373 whole entry): as the sequence (P56373 whole entry) above

Row | Compound | pIC50 (human P2X2/3 receptor) | pIC50 (human P2X3 receptor; [1]) | pIC50 (human P2X3 receptor)
1 | Cc1cnc(-c2cc(OCC3CC3)cc(C(=O)NC(C)c3ncc(F)cc3Cl)c2)s1 (racemic) [Example 5, N-[1-(3-Chloro-5-fluoropyridin-2-yl)ethyl]-3-(cyclopropylmethoxy)-5-(5-methyl-1,3-thiazol-2-yl)benzamide] | 6.46 | 7.80 | 
2 | Cc1cnc(-c2cc(OCC3CC3)cc(C(=O)NC(C)c3ncc(Cl)cc3F)c2)s1 (racemic) [Example 6, N-[1-(5-Chloro-3-fluoropyridin-2-yl)ethyl]-3-(cyclopropylmethoxy)-5-(5-methyl-1,3-thiazol-2-yl)benzamide] | 7.42 | 8.40 | 
3 | Cc1cnc(-c2cc(OC3COC3)cc(C(=O)NC(C)c3nnc(C(F)(F)F)s3)c2)s1 (single isomer, unassigned) [Example 193, 3-(5-Methyl-1,3-thiazol-2-yl)-5-(oxetan-3-yloxy)-N-{1-[5-(trifluoromethyl)-1,3,4-thiadiazol-2-yl]ethyl}benzamide] | ≤ 5.00 | 5.57 | 
4 | Cc1cnc(-c2cc(OC3COC3)cc(C(=O)NC(C)c3nnc(C(F)(F)F)s3)c2)s1 (single isomer, unassigned) [Example 194, 3-(5-Methyl-1,3-thiazol-2-yl)-5-(oxetan-3-yloxy)-N-{1-[5-(trifluoromethyl)-1,3,4-thiadiazol-2-yl]ethyl}benzamide] | 6.24 | 7.34 | 
5 | Cc1cnc(-c2cc(OC3CCNC(C(F)(F)F)C3)cc(C(=O)N[C@H](C)c3cnc(C(F)(F)F)nc3)c2)s1 (single isomer, unassigned) [Example 207] | 7.06 | 8.30 | 
6 | Cc1cnc(-c2cc(OC3CCNC(C(F)(F)F)C3)cc(C(=O)N[C@H](C)c3cnc(C(F)(F)F)nc3)c2)s1 (single isomer, unassigned) [Example 208] | 7.05 | 8.70 | 
7 | Cc1cnc(-c2cc(OC[C@]3(F)CCCNC3)cc(C(=O)NC(C)c3cnc(C(F)(F)F)nc3)c2)s1 (single isomer, unassigned) [Example 355] | 6.02 | 8.05 | 
8 | Cc1cnc(-c2cc(OCC3CCOC3)cc(C(=O)NC(C)c3ncc(F)cc3Cl)c2)s1 (stereo in doubt) [Example 69, N-[1-(3-Chloro-5-fluoropyridin-2-yl)ethyl]-3-(5-methyl-1,3-thiazol-2-yl)-5-[(3R)-tetrahydrofuran-3-ylmethoxy]benzamide] | 6.03 | 7.82 | 
9 | Cc1cnc(-c2cc(OCC3CN(C(C)C)CCO3)cc(C(=O)N[C@H](C)c3cnc(C(F)(F)F)nc3)c2)s1 (stereo in doubt) [Example 382, 3-(5-methyl-1,3-thiazol-2-yl)-5-{[(2R)-4-(propan-2-yl)morpholin-2-yl]methoxy}-N-{(1R)-1-[2-(trifluoromethyl)pyrimidin-5-yl]ethyl}benzamide] | 6.36 | 7.89 | 
10 | Cc1ccc(CNC(=O)c2cc(OCC3CC3)cc(-c3ncc(C)s3)c2)nn1 [Example 2, 3-(Cyclopropylmethoxy)-N-[(6-methylpyridazin-3-yl)methyl]-5-(5-methyl-1,3-thiazol-2-yl)benzamide] | 6.60 | 7.72 | 
11 | Cc1cnc(CNC(=O)c2cc(OCC3CC3)cc(-c3ncc(C)s3)c2)cn1 [Example 3, 3-(Cyclopropylmethoxy)-N-[(5-methylpyrazin-2-yl)methyl]-5-(5-methyl-1,3-thiazol-2-yl)benzamide] | 5.96 | 7.59 | 
12 | Cc1cnc([C@@H](C)NC(=O)c2cc(OCC3CC3)cc(-c3ncc(C)s3)c2)cn1 [Example 4, 3-(Cyclopropylmethoxy)-N-[(1R)-1-(5-methylpyrazin-2-yl)ethyl]-5-(5-methyl-1,3-thiazol-2-yl)benzamide] | 7.01 | 8.05 | 
13 | Cc1cnc(-c2cc(OCC3CC3)cc(C(=O)N[C@H](C)c3nnc(C)s3)c2)s1 [Example 7, 3-(Cyclopropylmethoxy)-N-[(1R)-1-(5-methyl-1,3,4-thiadiazol-2-yl)ethyl]-5-(5-methyl-1,3-thiazol-2-yl)benzamide] | 6.97 | 8.10 | 
14 | Cc1ccc([C@@H](C)NC(=O)c2cc(OCC3CC3)cc(-c3ncc(C)s3)c2)nn1 [Example 8, 3-(Cyclopropylmethoxy)-N-[(1R)-1-(6-methylpyridazin-3-yl)ethyl]-5-(5-methyl-1,3-thiazol-2-yl)benzamide] | 7.05 | 8.52 | 
15 | Cc1cnc(-c2cc(OCC3CC3)cc(C(=O)N[C@H](C)c3ccc(C(F)(F)F)nn3)c2)s1 [Example 9, 3-(Cyclopropylmethoxy)-5-(5-methyl-1,3-thiazol-2-yl)-N-{(1R)-1-[6-(trifluoromethyl)pyridazin-3-yl]ethyl}benzamide] | 6.84 | 8.15 | 
16 | Cc1ncc([C@@H](C)NC(=O)c2cc(OCC3CC3)cc(-c3ncc(C)s3)c2)cn1 [Example 10, 3-(Cyclopropylmethoxy)-N-[(1R)-1-(2-methylpyrimidin-5-yl)ethyl]-5-(5-methyl-1,3-thiazol-2-yl)benzamide] | 6.73 | 8.15 | 
17 | Cc1cnc(CNC(=O)c2cc(O[C@@H]3CCOC3)cc(-c3ncc(C)s3)c2)cn1 [Example 12, N-[(5-methylpyrazin-2-yl)methyl]-3-(5-methyl-1,3-thiazol-2-yl)-5-[(3R)-tetrahydrofuran-3-yloxy]benzamide] | ≤ 5.00 |  | 6.55
18 | C#CCOc1cc(C(=O)NCc2ncc(Cl)cc2F)cc(-c2ncc(C)s2)c1 [Example 32, N-[(5-Chloro-3-fluoropyridin-2-yl)methyl]-3-(5-methyl-1,3-thiazol-2-yl)-5-(prop-2-yn-1-yloxy)benzamide] |  | 7.62 | 
19 | C#CCOc1cc(C(=O)N[C@H](C)c2ccc(C)nn2)cc(-c2ncc(C)s2)c1 [Example 37, N-[(1R)-1-(6-Methylpyridazin-3-yl)ethyl]-3-(5-methyl-1,3-thiazol-2-yl)-5-(prop-2-yn-1-yloxy)benzamide] | 5.93 |  | 
20 | Cc1ccc([C@@H](C)NC(=O)c2cc(OC3COC3)cc(-c3ncc(C)s3)c2)cn1 [Example 51, N-[(1R)-1-(6-methylpyridin-3-yl)ethyl]-3-(5-methyl-1,3-thiazol-2-yl)-5-(oxetan-3-yloxy)benzamide] | 5.86 |  | 
21 | Cc1ccc(CNC(=O)c2cc(OC[C@@H]3CCCO3)cc(-c3ncc(C)s3)c2)nn1 [Example 54, N-[(6-Methylpyridazin-3-yl)methyl]-3-(5-methyl-1,3-thiazol-2-yl)-5-[(2S)-tetrahydrofuran-2-ylmethoxy]benzamide] | ≤ 5.00 |  | 
22 | Cc1cnc(-c2cc(OC3CCOCC3)cc(C(=O)N[C@H](C)c3ccc(C(F)(F)F)nn3)c2)s1 [Example 89, 3-(5-Methyl-1,3-thiazol-2-yl)-5-(tetrahydro-2H-pyran-4-yloxy)-N-{(1R)-1-[6-(trifluoromethyl)pyridazin-3-yl]ethyl}benzamide] | 6.70 |  | 
23 | Cc1cc(Oc2cc(C(=O)N[C@H](C)c3ccc(C(F)(F)F)nn3)cc(-c3ncc(C)s3)c2)ccn1 [Example 105, 3-[(2-Methylpyridin-4-yl)oxy]-5-(5-methyl-1,3-thiazol-2-yl)-N-{(1R)-1-[6-(trifluoromethyl)pyridazin-3-yl]ethyl}benzamide] | 7.41 |  | 
24 | Cc1cnc(-c2cc(OC3CCNCC3)cc(C(=O)N[C@H](C)c3cnc(C(F)(F)F)nc3)c2)s1 [Example 138, 3-(5-Methyl-1,3-thiazol-2-yl)-5-(piperidin-4-yloxy)-N-{(1R)-1-[2-(trifluoromethyl)pyrimidin-5-yl]ethyl}benzamide] | 6.25 |  | 
25 | Cc1cnc(-c2cc(OC3CCOCC3)cc(C(=O)N[C@H](C)c3cnc(C(F)F)nc3)c2)s1 [Example 154, N-{(1R)-1-[2-(difluoromethyl)pyrimidin-5-yl]ethyl}-3-(5-methyl-1,3-thiazol-2-yl)-5-(tetrahydro-2H-pyran-4-yloxy)benzamide] | 6.89 |  | 
26 | Cc1cnc(-c2cc(OC3(C)COC3)cc(C(=O)N[C@H](C)c3cnc(C(F)(F)F)nc3)c2)s1 [Example 156, 3-[(3-methyloxetan-3-yl)oxy]-5-(5-methyl-1,3-thiazol-2-yl)-N-{(1R)-1-[2-(trifluoromethyl)pyrimidin-5-yl]ethyl}benzamide] | 6.79 |  | 
27 | Cc1cnc(-c2cc(OCCn3cncn3)cc(C(=O)N[C@H](C)c3cnc(C(F)(F)F)nc3)c2)s1 [Example 159, 3-(5-methyl-1,3-thiazol-2-yl)-5-[2-(1H-1,2,4-triazol-1-yl)ethoxy]-N-{(1R)-1-[2-(trifluoromethyl)pyrimidin-5-yl]ethyl}benzamide] | 5.91 |  | 
28 | Cc1cnc(-c2cc(OC[C@H]3COCCO3)cc(C(=O)N[C@H](C)c3ccc(C(F)(F)F)nc3)c2)s1 [Example 177, 3-[(2R)-1,4-dioxan-2-ylmethoxy]-5-(5-methyl-1,3-thiazol-2-yl)-N-{(1R)-1-[6-(trifluoromethyl)pyridin-3-yl]ethyl}benzamide] | 6.05 |  | 
29 | Cc1cnc(-c2cc(OCC34CNC(CO3)C4)cc(C(=O)N[C@H](C)c3cnc(C(F)(F)F)nc3)c2)s1 (stereo partly drawn) [Example 407, 3-(5-Methyl-1,3-thiazol-2-yl)-5-[2-oxa-5-azabicyclo[2.2.1]hept-1-ylmethoxy]-N-{(1R)-1-[2-(trifluoromethyl)pyrimidin-5-yl]ethyl}benzamide] |  | 7.82 | 
